Test results taken from patent publication US20080207641A1 (Synta Pharmaceuticals Corp., priority 2006, published 2008).
≈ marks a conversion by molar mass, not a printed value. Like-named read-outs stand apart in the source and are kept apart here.

Tests used:
IL-2 production = assay: Inhibition of IL-2 production in PHA-activated Jurkat cells (ELISA); format: cell-based; details: Homo sapiens, 20 h, PHA 2.5 μg/mL, 20 hours at 37° C., IL-2 ELISA
Experimental: Jurkat cells were placed in a 96 well plate (0.5 million cells per well in 1% FBS medium) then a test compound of this invention was added at different concentrations. After 10 minutes, the cells were activated with PHA (final concentration 2.5 μg/mL) and incubated for 20 hours at 37° C. under CO2. The final volume was 200 μL. Following incubation, the cells were centrifuged and the supernatants collected and stored at −70° C. prior to assaying for IL-2 production. A commercial ELISA kit (IL-2 Eli-pair, Diaclone Research, Besancon, France) was used to detect production of IL-2, from which dose response curves were obtained. The IC50 value was calculated as the concentration at which 50% of maximum IL-2 production after stimulation was inhibited versus a non-stimulation control.

[1] = Solubility in simulated gastric fluids; format: physicochemical
Excerpt: Solubility in Simulated Gastric Fluids

IC50 (IL-2 production) [nM] | solubility [1] [µM] | solubility ([1]; simulated gastric fluid) [µM] | SMILES
≤ 35 | 150 (≈ 61.9 µg/mL) |  | CC1=C(c2ccc(NC(=O)c3c(F)cncc3F)cc2)CN(c2nccs2)CC1 [Compound 32, 3,5-difluoro-N-(4-(4-methyl-1-(thiazol-2-yl)-1,2,5,6-tetrahydropyridin-3-yl)phenyl)isonicotinamide]
 | 150 (≈ 61.7 µg/mL) |  | CC1=C(c2ccc(NC(=O)c3ccc(F)cc3F)nc2)CN(c2nnn(C)n2)CC1 [Compound 21, 2,4-difluoro-N-(5-(4-methyl-1-(2-methyl-2H-tetrazol-5-yl)-1,2,5,6-tetrahydropyridin-3-yl)pyridin-2-yl)benzamide]
35 to 75 |  |  | CC1=C(c2ccc(NC(=O)c3ccccc3C(F)(F)F)cc2)CN(c2nccs2)CC1 [Compound 9, N-(4-(4-methyl-1-(thiazol-2-yl)-1,2,5,6-tetrahydropyridin-3-yl)phenyl)-2-(trifluoromethyl)benzamide]
 | 150 |  | CC1=C(c2ccc(NC(=O)c3ccc(F)cc3F)cc2)CN(c2nccs2)CC1.Cl [Compound 19, 2,4-difluoro-N-(4-(4-methyl-1-(thiazol-2-yl)-1,2,5,6-tetrahydropyridin-3-yl)phenyl)benzamide hydrochloride]
 |  | 50 (≈ 17.7 µg/mL) | CC(C)=CC(=O)Nc1ccc(C2=C(C)CCN(c3nnn(C)n3)C2)cn1 [Compound 28, 3-methyl-N-(5-(4-methyl-1-(2-methyl-2H-tetrazol-5-yl)-1,2,5,6-tetrahydropyridin-3-yl)pyridin-2-yl)but-2-enamide]
 |  | 25 | CC1=C(c2cnc(NC(=O)c3c(F)cncc3F)cn2)CN(c2nccs2)CC1.Cl [Compound 34, 3,5-difluoro-N-(5-(4-methyl-1-(thiazol-2-yl)-1,2,5,6-tetrahydropyridin-3-yl)pyrazin-2-yl)isonicotinamide hydrochloride]
150 to 1000 |  |  | CSc1ncccc1C(=O)Nc1ccc(C2=C(C)CCN(c3nccs3)C2)cc1 [Compound 14, N-(4-(4-methyl-1-(thiazol-2-yl)-1,2,5,6-tetrahydropyridin-3-yl)phenyl)-2-(methylthio)nicotinamide]
> 1000 |  |  | CC1=C(c2cnc(NC(=O)c3c(F)cccc3F)cn2)CN(c2nnnn2C)CC1 [Compound 3, 2,6-difluoro-N-(5-(4-methyl-1-(1-methyl-1H-tetrazol-5-yl)-1,2,5,6-tetrahydropyridin-3-yl)pyrazin-2-yl)benzamide]
75 to 150 |  |  | Cc1cncnc1C(=O)Nc1ccc(C2=C(C=O)CCN(c3nccs3)C2)cc1 [Compound 1, N-(4-(4-formyl-1-(thiazol-2-yl)-1,2,5,6-tetrahydropyridin-3-yl)phenyl)-5-methylpyrimidine-4-carboxamide]
150 to 1000 |  |  | CC1=C(c2ccc(NC(=O)C3c4ccccc4-c4ccccc43)cc2)CN(c2nccs2)CC1 [Compound 17, N-(4-(4-methyl-1-(thiazol-2-yl)-1,2,5,6-tetrahydropyridin-3-yl)phenyl)-9H-fluorene-9-carboxamide]
75 to 150 |  |  | CC1=C(c2ccc(NC(=O)c3c(F)cccc3C(F)(F)F)cc2)CN(c2nccs2)CC1 [Compound 8, 2-fluoro-N-(4-(4-methyl-1-(thiazol-2-yl)-1,2,5,6-tetrahydropyridin-3-yl)phenyl)-6-(trifluoromethyl)benzamide]
75 to 150 |  |  | O=C(Nc1ccc(-c2cc(-c3nccs3)ccc2Cl)cc1)c1c(O)cccc1F [Compound 18, N-(2′-chloro-5′-(thiazol-2-yl)biphenyl-4-yl)-2-fluoro-6-hydroxybenzamide]
> 1000 |  |  | CC1=C(c2ccc(NC(=O)c3c(F)cccc3F)nc2)CN(c2nccn2C)CC1 [Compound 22, 2,6-difluoro-N-(5-(4-methyl-1-(1-methyl-1H-imidazol-2-yl)-1,2,5,6-tetrahydropyridin-3-yl)pyridin-2-yl)benzamide]
 |  | 25 (≈ 10.7 µg/mL) | CC1=C(c2cnc(NC(=O)c3c(F)cccc3Cl)cn2)CN(c2nnn(C)n2)CC1 [Compound 35, 2-chloro-6-fluoro-N-(5-(4-methyl-1-(2-methyl-2H-tetrazol-5-yl)-1,2,5,6-tetrahydropyridin-3-yl)pyrazin-2-yl)benzamide]
